Data published in paper PMC10876879, “Sustained silencing peanut allergy by xanthopurpurin is associated with suppression of peripheral and bone marrow IgE-producing B cell” (Frontiers in Immunology, 2024).
Where “and” joins values, the source holds several entries; their conditions need not be identical. Identical values can stand only once.

Key:
U266 cells [1] = test: Cell viability of U266 cells by trypan blue exclusion; assay type: cell-based, human; details: all concentrations tested (2.5-40 µg/mL)
Description: Cell viability was evaluated using a trypan blue exclusion as previously described ([31]). Briefly, a 10µL of cells suspension from each culture was mixed with equal volume of trypan blue dye. The mixture was loaded into a hemocytometer and cells were counted under a microscope. The percentage of viable cells was calculated as follows: Viable cells (%) = (total number of viable cells)/(total number of cells) × 100.

naïve C3H/HeJ mice [2] = test: Sub-chronic toxicity assay; assay type: in vivo
Description: (§1) For acute toxicity analysis, naïve C3H/HeJ mice were fed with 4 mg of XPP per mouse, which is10 times of the daily dose. […] In the sub-chronic toxicity assay, naïve C3H/HeJ mice were fed with 5 times their daily therapeutic dose (2 mg/day) for 14 days. Control group mice (sham) were fed with water. Blood samples were collected at the end of each experiment. Blood urea nitrogen (BUN) and alanine aminotransferase (ALT) measurements for the evaluation of kidney and liver functions respectively and complete blood count (CBC) testing were performed by ALX laboratories, NY.

[3] = test system: IgG production by ARH-77 cells; test: IgG production by ARH-77 cells, IgG ELISA; assay type: cell-based, human; details: XPP 2.5, 5, 10, 20, and 40 μg/mL
Description: ARH-77, a human IgG-producing myeloma cell line, was purchased from ATCC (American Type Culture Collection; Manassas, VA). The culture media contains RPMI 1640 medium supplemented, 10% FBS, 1 mM sodium pyruvate, 1×10^-5 M β-ME and 0.5% penicillin-streptomycin. Cells were cultured at 37°C under 5% CO2. […] After 3 days, supernatants were harvested and IgG levels were determined using an ELISA Kit (Mabtech Inc, OH).

IL-4 promoter = IL-4 promoter DNA methylation (CpG-393) in splenocytes of treated mice, bisulfite pyrosequencing; assay type: in vivo, C3H/HeJ mice; details: model #2, vs sham
Excerpt: Genomic DNA was isolated from mouse splenocytes collected from orally sensitized mouse model#2 using Qiagen mini DNA/RNA extraction kit (Qiagen, Valencia, CA). Isolated DNA was bisulfite-modified using an Epitect plus DNA Bisulfite kit (Qiagen) following the manufacturer’s instructions. Bisulfite converted DNA was then amplified with the IL-4 primers listed below by PCR. The PCR products were subsequently purified and pyrosequenced using sequencing primers on a Pyromark Q24 system (Qiagen) as described previously ([38]). Primers for IL-4; Fwd: […]; Rev-Biotin-[…]. Sequencing (CpG -393) […].

PN-allergic C3H/HeJ mice = test: Peanut-allergic mouse models (Model #1 systemic i.p. sensitization, early treatment; Model #2 oral sensitization, late treatment) with oral PN challenge; assay type: in vivo; details: for Time after stopping treatment at which protection from anaphylaxis persisted: model #1
[4] = test system: splenocytes (SPCs) and mesenteric lymph node (MLN) cells; test: Cytokines in CPE-stimulated splenocyte and MLN cell cultures from treated mice (Model #2), ELISA; assay type: in vivo, C3H/HeJ mice; details: model #2, CPE stimulation, vs sham
Description: Mice were sacrificed at the end of each experiment. The splenocytes (SPCs) and mesenteric lymph node (MLN) cells of each mouse was collected as previously described ([37]). Cells (4 x10^6/well/mL) were cultured in 24 well plates in the presence or absence of CPE (200 µg/mL). After 72 hrs of incubation at 37°C under 5% CO2, supernatants were collected. Cytokine levels were measured using ELISA kits in triplicate according to the manufacturer’s instructions (BD Biosciences, San Jose, CA and R&D systems, Minneapolis, MN).

naïve C3H/HeJ mice [5] = test: Acute toxicity assay; assay type: in vivo
Description: as §1

ARH-77 cells = test: Cell viability of ARH-77 cells by trypan blue exclusion; assay type: cell-based, human; details: XPP 2.5-40 μg/mL
Description: Cell viability was evaluated using the trypan blue exclusion assay. Briefly, 10µL of ARH-77 cells at each testing condition was mixed with 10 µL of trypan blue dye. The mixture was then loaded into a hemocytometer and the viable cells were counted under a microscope. The percentage of viable cells was calculated as follows: Viable cells (%) = (total number of viable cells) / (total number of cells) × 100.

U266 cells [6] = test: RNA sequencing of XPP-treated U266 cells; assay type: cell-based, human; details: XPP 10 μg/mL, 3 days
Description: U266 cells were treated with XPP at 10 μg/mL. After 3 days of treatment, cells were collected and total RNA was isolated using Qiagen RNeasy MiniKits following the manufacturer’s instructions. The purity of total RNA was analyzed and the RNA-Seq was performed with an Illumina HiSeq2500 instrument at the Genomics Core facility at Icahn School of Medicine at Mount Sinai. Counts were converted to Log2 counts per million and normalized. A log2 fold change was calculated and the gene list with values ≥ 2 or ≤ -2 were uploaded to DAVID bioinformatic system for functional analysis.

[7] = model #1, 7 weeks after stopping therapy
[8] = orally sensitized mouse model #2
[9] = 10x dose (4 mg/mouse) once, observed 14 days

Compound: O=C1c2ccccc2C(=O)c2c(O)cc(O)cc21 [XPP, xanthopurpurin]
- Toxicity / cell viability of U266 cells (trypan blue) (U266 cells [1]): No toxicity was observed at any concentration tested
- CBC: white blood cell, red blood cell, hemoglobin and platelet levels vs control group and normal range (naïve C3H/HeJ mice [2]; mouse, in vivo): within the normal range and similar to the control group
- Deaths, abnormal behavior or diarrhea (naïve C3H/HeJ mice [2]; sub-chronic, 5 times (2 mg/day) for 14 consecutive days): No deaths and abnormal behavior or diarrhea were observed either
- Mortality (naïve C3H/HeJ mice [2]; sub-chronic, 5x dose (2 mg/day/mouse) for 14 days): 0.00%
- IgG production by ARH-77 cells [3]: didn’t show significant inhibition
- Percentages of CpG methylation for CpG-393 of IL-4 promoter (IL-4 promoter): showed an increase
- Body temperatures after PN challenge (PN-allergic C3H/HeJ mice; both models, 30 minutes after challenge, p < 0.001 vs. Sham): normal body temperatures
- Reduction of PN-specific IgE levels at challenge vs. sham (PN-allergic C3H/HeJ mice; both models, oral XPP 400 µg/day): > 80% and 75%
- Plasma histamine levels after PN challenge (PN-allergic C3H/HeJ mice; both models, p < 0.001): essentially normal plasma histamine levels
- Symptom scores following PN challenge (PN-allergic C3H/HeJ mice; both models, score 0-5, p <0.001 vs. Sham): 0
- Time after stopping treatment at which protection from anaphylaxis persisted (PN-allergic C3H/HeJ mice): 5 weeks
- Body temperatures, sustained effect (PN-allergic C3H/HeJ mice; [7]): increased
- PN-specific IgE levels, sustained effect (PN-allergic C3H/HeJ mice; [7]): significantly reduced
- Symptom scores, sustained effect (PN-allergic C3H/HeJ mice; [7]): significantly reduced
- Time after stopping treatment at which protection from anaphylaxis persisted (PN-allergic C3H/HeJ mice; listed as xanthopurpurin): 7 weeks
- Fecal PN-specific IgA (PN-allergic C3H/HeJ mice; [8]): did not reduce
- Serum PN-specific IgG1 (PN-allergic C3H/HeJ mice; [8]): did not reduce
- Serum PN-specific IgG2a (PN-allergic C3H/HeJ mice; [8]): did not reduce
- IL-4 level in MLN cultures ([4]; 72 hrs): significantly inhibited IL-4 level
- IL-4 level in splenocyte cultures ([4]; 72 hrs): significantly inhibited IL-4 level
- IFN-γ production in MLN cultures [4]: no significant differences
- IFN-γ production in SPC cultures [4]: no significant differences
- IL-10 production in MLN cultures [4]: no significant differences
- IL-10 production in SPC cultures [4]: no significant differences
- Deaths, abnormal behavior or diarrhea (naïve C3H/HeJ mice [5]; 10 times (4 mg/day) once, observed daily for 14 days): No deaths and abnormal behavior or diarrhea were observed
- Morbidity (naïve C3H/HeJ mice [5]; [9]): 0.00%
- Mortality (naïve C3H/HeJ mice [5]; [9]): 0.00%
- Toxicity / cell viability of ARH-77 cells (ARH-77 cells): No toxicity was observed
- Number of genes downregulated (RNA-Seq) (U266 cells [6]): 5094 genes
- Number of genes upregulated (RNA-Seq) (U266 cells [6]): 4009 genes
